# Active and inactive are the calls of the source. The calls are words filed in the database; no cut-off is given here.
# What was measured:
# Mus musculus [1] = assay: Anti-inflammatory activity in zymosan-induced C57BL/6J mouse peritonitis model assessed as total cell count in peritoneal cavity at 25 ug, ip pretreated for 1 hr followed by zymosan treatment and redosing of test compound at 1 hr post zymosan addition and measured 4 hrs post zymosan addition by flow cytometry (reference value: 100%); assay type: functional
# Mus musculus [2] = assay: Anti-inflammatory activity in zymosan-induced C57BL/6J mouse peritonitis model assessed as PMN leukocytes level in peritoneal cavity at 25 ug, ip pretreated for 1 hr followed by zymosan treatment and redosing of test compound at 1 hr post zymosan addition and measured 4 hrs post zymosan addition by flow cytometry (reference value: 100%); assay type: functional
# [3] = target: T1, N-formyl peptide receptor 2 (Homo sapiens) (UniProt P25090); assay: Agonist activity at ALX/FPR2 in human THP1 cells harboring NF-kB-Luc assessed as inhibition of LPS-induced NFkB signalling activation by measuring IFNgamma secretion at 10^-6 M pretreated for 30 mins followed by LPS stimulation for 24 hrs by electrochemiluminescence assay (reference value: 100%); assay type: cell-based; parameters: scale not given: the % may be the effect or the level left
# T1 sequence (whole entry): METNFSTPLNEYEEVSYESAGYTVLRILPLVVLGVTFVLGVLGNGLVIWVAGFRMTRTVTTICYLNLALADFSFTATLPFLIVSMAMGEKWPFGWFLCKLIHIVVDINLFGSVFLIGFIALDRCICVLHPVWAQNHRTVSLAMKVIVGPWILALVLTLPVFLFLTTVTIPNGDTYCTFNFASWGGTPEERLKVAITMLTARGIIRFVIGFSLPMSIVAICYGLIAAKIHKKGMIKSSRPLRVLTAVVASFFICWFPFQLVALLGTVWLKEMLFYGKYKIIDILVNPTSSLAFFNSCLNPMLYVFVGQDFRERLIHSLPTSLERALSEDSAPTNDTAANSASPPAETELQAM
# [4] = target: T1, N-formyl peptide receptor 2 (Homo sapiens); assay: Agonist activity at ALX/FPR2 in human THP1 cells harboring NF-kB-Luc assessed as inhibition of LPS-induced NFkB signalling activation by measuring NF-kB activation level at 10^-6 M pretreated for 30 mins followed by LPS stimulation for 24 hrs by luciferase reporter gene assay; assay type: cell-based; parameters: scale not given: the % may be the effect or the level left
# THP-1 [5] = assay: Cytotoxicity against human THP1 cells harboring NFkB-Luc assessed as LDH release at 10'6 M after 24 hrs by spectrophotometric method relative to control; assay type: cell-based; details: thp-1, 24 h
# [6] = target: T1, N-formyl peptide receptor 2 (Homo sapiens); assay: Agonist activity at ALX/FPR2 in human THP1 cells harboring NF-kB-Luc assessed as inhibition of LPS-induced NFkB signalling activation by measuring IL-1beta secretion at 10^-6 M pretreated for 30 mins followed by LPS stimulation for 24 hrs by electrochemiluminescence assay (reference value: 100%); assay type: cell-based; parameters: scale not given: the % may be the effect or the level left
# [7] = target: T1, N-formyl peptide receptor 2 (Homo sapiens); assay: Agonist activity at ALX/FPR2 in human THP1 cells harboring NF-kB-Luc assessed as inhibition of LPS-induced NFkB signalling activation by measuring TNFalpha secretion at 10^-6 M pretreated for 30 mins followed by LPS stimulation for 24 hrs by electrochemiluminescence assay (reference value: 100%); assay type: cell-based; parameters: scale not given: the % may be the effect or the level left
# [8] = target: T1, N-formyl peptide receptor 2 (Homo sapiens); assay: Agonist activity at ALX/FPR2 in human THP1 cells harboring NF-kB-Luc assessed as inhibition of LPS-induced NFkB signalling activation by measuring IL-6 secretion at 10^-6 M pretreated for 30 mins followed by LPS stimulation for 24 hrs by electrochemiluminescence assay (reference value: 100%); assay type: cell-based; parameters: scale not given: the % may be the effect or the level left
# Homo sapiens [9] = species on record: Homo sapiens; assay: Activation of Luc-fused NFkB (unknown origin) expressed in non-stimulated human THP1 cells assessed as relative luminescence unit at 10^-6 M after 24 hrs by luciferase reporter gene assay (reference value: 100%); assay type: cell-based
# [10] = target: T1, N-formyl peptide receptor 2 (Homo sapiens); assay: Agonist activity at ALX/FPR2 in human THP1 cells harboring NF-kB-Luc assessed as inhibition of LPS-induced NFkB signalling activation by measuring IL-12p70 secretion at 10^-6 M pretreated for 30 mins followed by LPS stimulation for 24 hrs by electrochemiluminescence assay (reference value: 100%); assay type: cell-based; parameters: scale not given: the % may be the effect or the level left
# Mus musculus [11] = assay: Anti-inflammatory activity in zymosan-induced C57BL/6J mouse peritonitis model assessed as total cell count in peritoneal cavity at 50 ng, ip pretreated for 30 mins followed by zymosan treatment and redosing of test compound at 1 hr post zymosan addition and measured 4 hrs post zymosan addition by flow cytometry (reference value: 100%); assay type: functional
# [12] = target: T2, N-formyl peptide receptor 2 (Homo sapiens, UniProt P25090); assay: Agonist activity at ALX/FPR2 in human THP1 cells harboring NF-kB-Luc assessed as inhibition of LPS-induced NFkB signalling activation by measuring reduction in TNFalpha secretion pretreated for 30 mins followed by LPS stimulation for 24 hrs by electrochemiluminescence assay; assay type: cell-based; details: read-out: IC50
# T2 sequence (P25090 whole entry): T1 sequence (whole entry)
# THP-1 [13] = assay: Cytotoxicity against human THP1 cells harboring NFkB-Luc assessed as LDH release at 10'9 M after 24 hrs by spectrophotometric method relative to control; assay type: cell-based; details: thp-1, 24 h
# [14] = target: T2, N-formyl peptide receptor 2; assay: Agonist activity at ALX/FPR2 in human THP1 cells harboring NF-kB-Luc assessed as inhibition of LPS-induced NFkB signalling activation by measuring reduction in IL-12p70 secretion pretreated for 30 mins followed by LPS stimulation for 24 hrs by electrochemiluminescence assay; assay type: cell-based; details: read-out: IC50
# THP-1 [15] = assay: Cytotoxicity against human THP1 cells harboring NFkB-Luc assessed as LDH release at 10'8 M after 24 hrs by spectrophotometric method relative to control; assay type: cell-based; details: thp-1, 24 h
# Homo sapiens [16] = species on record: Homo sapiens; assay: Activation of Luc-fused NFkB (unknown origin) expressed in non-stimulated human THP1 cells assessed as relative luminescence unit at 10^-12 M after 24 hrs by luciferase reporter gene assay (reference value: 100%); assay type: cell-based
# HEK293 [17] = assay: Induction of intracellular calcium accumulation in HEK293 cells at 0.01 nM to 100 nM by Fluo-4 dye based fluorescence spectrophotometric assay; assay type: functional, cell-based; details: Homo sapiens
# Mus musculus [18] = assay: Anti-inflammatory activity in zymosan-induced C57BL/6J mouse peritonitis model assessed as PMN leukocytes level in peritoneal cavity at 50 ng, ip pretreated for 30 mins followed by zymosan treatment and redosing of test compound at 1 hr post zymosan addition and measured 4 hrs post zymosan addition by flow cytometry (reference value: 100%); assay type: functional
# Homo sapiens [19] = species on record: Homo sapiens; assay: Activation of Luc-fused NFkB (unknown origin) expressed in non-stimulated human THP1 cells assessed as relative luminescence unit at 10^-8 M after 24 hrs by luciferase reporter gene assay (reference value: 100%); assay type: cell-based
# THP-1 [20] = assay: Cytotoxicity against human THP1 cells harboring NFkB-Luc assessed as LDH release at 10'10 M after 24 hrs by spectrophotometric method relative to control; assay type: cell-based; details: thp-1, 24 h
# THP-1 [21] = assay: Cytotoxicity against human THP1 cells harboring NFkB-Luc assessed as LDH release at 10'7 M after 24 hrs by spectrophotometric method relative to control; assay type: cell-based; details: thp-1, 24 h
# [22] = target: T2, N-formyl peptide receptor 2; assay: Agonist activity at ALX/FPR2 in human THP1 cells harboring NF-kB-Luc assessed as inhibition of LPS-induced NFkB signalling activation by measuring reduction in IL-6 secretion pretreated for 30 mins followed by LPS stimulation for 24 hrs by electrochemiluminescence assay; assay type: cell-based; details: read-out: IC50
# Mus musculus [23] = assay: Anti-inflammatory activity in zymosan-induced C57BL/6J mouse peritonitis model assessed as total cell count in peritoneal cavity at 150 ng, ip pretreated for 30 mins followed by zymosan treatment and redosing of test compound at 1 hr post zymosan addition and measured 4 hrs post zymosan addition by flow cytometry (reference value: 100%); assay type: functional
# [24] = target: T2, N-formyl peptide receptor 2; assay: Agonist activity at ALX/FPR2 in human THP1 cells harboring NF-kB-Luc assessed as inhibition of LPS-induced NFkB signalling activation by measuring reduction in IL-1beta secretion pretreated for 30 mins followed by LPS stimulation for 24 hrs by electrochemiluminescence assay; assay type: cell-based
# THP-1 [25] = assay: Cytotoxicity against human THP1 cells harboring NFkB-Luc assessed as LDH release at 10'11 M after 24 hrs by spectrophotometric method relative to control; assay type: cell-based; details: thp-1, 24 h
# Homo sapiens [26] = species on record: Homo sapiens; assay: Activation of Luc-fused NFkB (unknown origin) expressed in non-stimulated human THP1 cells assessed as relative luminescence unit at 10^-11 M after 24 hrs by luciferase reporter gene assay (reference value: 100%); assay type: cell-based
# THP-1 [27] = assay: Cytotoxicity against human THP1 cells harboring NFkB-Luc assessed as LDH release at 10'12 M after 24 hrs by spectrophotometric method relative to control; assay type: cell-based; details: thp-1, 24 h
# Mus musculus [28] = assay: Anti-inflammatory activity in zymosan-induced C57BL/6J mouse peritonitis model assessed as PMN leukocytes level in peritoneal cavity at 150 ng, ip pretreated for 30 mins followed by zymosan treatment and redosing of test compound at 1 hr post zymosan addition and measured 4 hrs post zymosan addition by flow cytometry (reference value: 100%); assay type: functional
# Homo sapiens [29] = species on record: Homo sapiens; assay: Activation of Luc-fused NFkB (unknown origin) expressed in non-stimulated human THP1 cells assessed as relative luminescence unit at 10^-9 M after 24 hrs by luciferase reporter gene assay (reference value: 100%); assay type: cell-based
# Homo sapiens [30] = species on record: Homo sapiens; assay: Activation of Luc-fused NFkB (unknown origin) expressed in non-stimulated human THP1 cells assessed as relative luminescence unit at 10^-10 M after 24 hrs by luciferase reporter gene assay (reference value: 100%); assay type: cell-based
# [31] = target: T2, N-formyl peptide receptor 2; assay: Agonist activity at ALX/FPR2 in human THP1 cells harboring NF-kB-Luc assessed as inhibition of LPS-induced NFkB signalling activation pretreated for 30 mins followed by LPS stimulation for 24 hrs by luciferase reporter gene assay; assay type: cell-based
# Homo sapiens [32] = species on record: Homo sapiens; assay: Activation of Luc-fused NFkB (unknown origin) expressed in non-stimulated human THP1 cells assessed as relative luminescence unit at 10^-7 M after 24 hrs by luciferase reporter gene assay (reference value: 100%); assay type: cell-based
# [33] = target: T2, N-formyl peptide receptor 2; assay: Agonist activity at ALX/FPR2 in human THP1 cells harboring NF-kB-Luc assessed as inhibition of LPS-induced NFkB signalling activation by measuring reduction in IFNgamma secretion pretreated for 30 mins followed by LPS stimulation for 24 hrs by electrochemiluminescence assay; assay type: cell-based; details: read-out: IC50
# HEK293 [34] = assay: Induction of intracellular calcium accumulation in HEK293 cells at 2 nM by Fluo-4 dye based fluorescence spectrophotometric assay; assay type: functional, cell-based; details: Homo sapiens
# [35] = target: T1, N-formyl peptide receptor 2 (Homo sapiens); assay: Agonist activity at ALX/FPR2 (unknown origin) expressed in HEK293 cells co-expressing Galphaq assessed as induction of intracellular calcium accumulation at 2 nM by Fluo-4 dye based fluorescence spectrophotometric assay; assay type: functional, cell-based
smiles,measurement,setting,value
C[C@@H]1C[C@H]2[C@@H]3CCC4=CC(=O)C=C[C@]4(C)[C@@]3(F)[C@@H](O)C[C@]2(C)[C@@]1(O)C(=O)CO [DEXAMETHASONE],Emax,Mus musculus [1],46.7%
same,Emax,Mus musculus [2],51.5%
same,Activity,[3],45.1%
same,Activity,[4],53.2%
same,fold change (FC),THP-1 [5],1.3
same,Activity,[6],13.6%
same,Activity,[7],58.1%
same,Activity,[8],1.5%
same,Activity,Homo sapiens [9],1.6%
same,Activity,[10],62.6%
CCCCC[C@@H](O)c1c(/C=C/[C@@H](O)[C@@H](O)CCCC(=O)OC)nc(C)n1C,Emax,Mus musculus [11],57.9%
same,IC50,[12],5.6 nM
same,fold change (FC),THP-1 [13],0.8
same,IC50,[14],5.1 nM
same,fold change (FC),THP-1 [15],0.9
same,Activity,Homo sapiens [16],2%
same,Activity,HEK293 [17],inactive
same,Emax,Mus musculus [18],51.6%
same,Activity,Homo sapiens [19],2.1%
same,fold change (FC),THP-1 [20],0.9
same,fold change (FC),THP-1 [21],0.9
same,IC50,[22],76.6 nM
same,Emax,Mus musculus [23],30.4%
same,IC50,[24],Not Active
same,fold change (FC),THP-1 [25],0.9
same,fold change (FC),THP-1 [5],1.1
same,Activity,Homo sapiens [26],2.1%
same,fold change (FC),THP-1 [27],1
same,Emax,Mus musculus [28],32.5%
same,Activity,Homo sapiens [29],2.1%
same,Activity,Homo sapiens [30],2.3%
same,IC50,[31],1 nM
same,Activity,Homo sapiens [32],2.5%
same,Activity,Homo sapiens [9],2%
same,IC50,[33],4.4 nM
CSCC[C@H](NC(=O)[C@@H](NC(=O)[C@H](CCSC)NC(=O)[C@H](Cc1ccc(O)cc1)NC(=O)[C@H](CCCCN)NC(=O)[C@@H](N)Cc1c[nH]c2ccccc12)C(C)C)C(=O)O,Activity,HEK293 [34],inactive
same,Activity,[35],Active
